How the values were obtained:
[1] = tested on: A375 Human Melanoma cell line; assay: In vivo fluorescence imaging biodistribution in subcutaneous tumor mice; conditions: i.v. at day 14 post-tumor challenge; from 3 to 9-days after NCs injection
Protocol: A model of immunodepressed mice have been used to conduct this experiment. Female NSG mice (9 weeks old, Charles River) were challenged by subcutaneous (s.c). injection of A375 Human Melanoma cell line (1×10^6) cells on the right flank with a 23-gauge needle. Amphoteric ICG-NCs and cationic ICG-NCs were administered i.v. at day 14 post-tumor challenge. PBS and ICG free was injected to control groups. Fluorescence was monitoring by in vivo imaging system (IVIS; Perkin Elmer, Waltham, MA, USA) using excitation/emission wavelength of 780 nm/845 nm.

[2] = Acute toxicity analysis (haematological and biochemical parameters) after i.v. administration; parameters: species or system BALB/C mice; conditions: mouse, in vivo, iv
Protocol: Encapsulated non-loaded NCS nanocapsules (cationic and amphoteric nanocapsules) were i.v. administered to female BALB/C mice (8 weeks old; Charles River) at three different doses. Blood and serum samples were obtained at 24 h post-administration for acute toxicity analysis (SBCV and SHCV, Universidad Autónoma de Barcelona).
Haematological parameters analysed in blood included white blood cells (WBC) count, red blood cells (RBC) count, haemoglobin (HGB), red blood cell specific volume (HCT), mean corpuscular volume (MCV), mean corpuscular haemoglobin (MCH), mean corpuscular haemoglobin concentration (MCHC), platelet (PLT), lymphocytes (LYMPH), monocytes (MONO), neutrophils (NEU), eosinophils (EO), and basophils (BASO).
Biochemical parameters detected in serum included albumin, alanine aminotransferase (ALT), aspartate aminotransferase (AST), total bilirubin levels (TBIL), creatinine (CREA), gamma-glutamyl transferase (GGT), potassium, total proteins, sodium, and urea.
Encapsulated or free R848 was i.v. administered to female BALB/C mice (8 weeks old; Charles River) at three different doses. Blood and serum samples were obtained at 24 h post-administration for acute toxicity analysis (SBCV and SHCV, Universidad Autónoma de Barcelona).

Structure (SMILES) | fluorescence signal / accumulation in tumor locations [1] | biochemical parameters in serum with respect to untreated groups [2] | haematological parameters with respect to untreated groups [2]
CC1(C)C(/C=C/C=C/C=C/C=C2\N(CCCCS(=O)(=O)[O-])c3ccc4ccccc4c3C2(C)C)=[N+](CCCCS(=O)(=O)[O-])c2ccc3ccccc3c21.[Na+] [ICG, Indocyanine Green] | low | – | –
CCOCc1nc2c(N)nc3ccccc3c2n1CC(C)(C)O [Sample R848, Resiquimod] | – | No significant differences | No significant differences

Reference: US20240277617A1, “NANOTECHNOLOGICAL PLATFORM BASED ON POLYURETHANE/POLYUREA CHEMISTRY TO FURNISH WATER-OIL-WATER MULTI WALLED AND FUNCTIONALIZABLE NANOCAPSULES AND THEIR PREPARATION PROCESS” (ECOPOL TECH SL, priority 2021, published 2024)
